Test results from US8686044B2, “Amide derivative, pest control agent containing the amide derivative, and use of the amide derivative” (Mitsui Chemicals Agro, Inc., priority 2008, dated 2014).

Assays:
Format in all cases: in vivo
[1] = system: Spodoptera litura; experiment: Pesticidal test against Spodoptera litura (cabbage leaf dip); conditions: foliar, 144 h, concentration 1 ppm, 2-stage larvae, examined after 6 days, 25° C., read-out: pesticidal rate
In short: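 Cabbage leaf pieces dipped 30 seconds in compound solution at a predetermined concentration and air-dried, then offered to second-stage larvae, five per group in two replicates. Held at 25° C. Living and dead larvae counted after 6 days.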

[2] = system: Plutella xylostella; experiment: Pesticidal test against Plutella xylostella (cabbage leaf dip); conditions: foliar, 144 h, concentration 1 ppm, 2-stage larvae, examined after 6 days, 25° C., read-out: pesticidal rate
In short: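 Second-stage larvae (5 per group, two replicates) were released onto air-dried cabbage leaf discs that had been immersed for 30 seconds in compound solution at a set concentration. Mortality was scored after 6 days at 25° C.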

[3] = system: Adoxophyes honmai; experiment: Pesticidal test against Adoxophyes honmai (artificial feed dip); conditions: 144 h, concentration 1 ppm, 2-stage larvae, examined after 6 days, 25° C., read-out: pesticidal rate
In short: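 Second-instar larvae, five per group in duplicate, were released onto air-dried feed slices previously immersed for 30 s in compound solution at a set concentration. Mortality was scored on day 6 at 25° C.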

[4] = system: Choristoneura magnanima; experiment: Pesticidal test against Choristoneura magnanima (artificial feed dip); conditions: 144 h, concentration 1 ppm, 2-stage larvae, examined after 6 days, 25° C., read-out: pesticidal rate
In short: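 Second-stage larvae, five per group in duplicate, fed artificial diet that had been immersed 30 s in test solution at a predetermined concentration and air-dried. Mortality scored at day 6, 25° C.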

[5] = system: Helicoverpa armigera; experiment: Pesticidal test against Helicoverpa armigera (cabbage leaf disk dip); conditions: foliar, 72 h, concentration 1 ppm, 2-stage larvae, examined after 3 days, 25° C., read-out: pesticidal rate
In short: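 Cabbage leaf disks were dipped for 30 s in test solution at a set concentration and air-dried. Second-instar larvae were placed one per hole and held at 25 °C, with live and dead counts taken after 3 days. Five larvae per group were tested in two replicates.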

[6] = system: Laodelphax striatellus; experiment: Pesticidal test against Laodelphax striatellus (rice seedling spray); conditions: 144 h, concentration 100 ppm, 3-stage larvae, examined after 6 days, 25° C., read-out: pesticidal rate
In short: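 Rice seedlings sprayed with 2.5 ml acetone solution of compound at a predetermined concentration, air-dried, then infested with third-stage Laodelphax striatellus larvae in capped water-containing tubes at 25 °C. Living and dead insects counted after 6 days; ten larvae per group, two replicates.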

[7] = system: Musca domestica; experiment: Pesticidal test against Musca domestica (petri dish dry film); conditions: 24 h, concentration 100 ppm, female adults, examined after 1 day, 25° C., read-out: pesticidal rate
In short: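 Female adult houseflies were confined at 25° C in capped 9 cm petri dishes coated with an air-dried film from 1 ml acetone solution of compound (predetermined concentration). Mortality was scored 1 day later, two replicates of five per group.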

[8] = system: Blattella germanica; experiment: Pesticidal test against Blattella germanica (petri dish dry film); conditions: 24 h, concentration 100 ppm, female adults, examined after 1 day, 25° C., read-out: pesticidal rate
In short: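 Acetone solution of test compound at a predetermined concentration dried as a film in a 9 cm petri dish; female adult cockroaches released onto it and kept at 25° C. Living and dead counted after 1 day; five insects per group, two replicates.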

[9] = system: Coptotermes formosanus; experiment: Pesticidal test against Coptotermes formosanus (treated filter paper); conditions: 120 h, concentration 30 ppm, examined after 5 days of treatment, 28° C., read-out: pesticidal rate
Method: Pesticidal Test against Coptotermes formosanus
20 μl of an acetone solution in which a test compound had been prepared at a predetermined concentration was added dropwise to the filter paper having a diameter of […] included in a polypropylene cup, and air-dried, and then 20 μl of water was added thereto. Coptotermes formosanus was released and the cup was capped. They were left to stand in a thermostatic chamber at 28° C., and the numbers of the living pests and the dead pests were examined after 5 days of treatment. The test was carried out with ten larvae per group in two replicates.

[10] = system: Ctenocephalides Felis; experiment: Insecticidal test for Ctenocephalides felis, Test Example 1 (dry film in glass tube, 0.5 ml, Table A4); conditions: Ctenocephalides felis, adults, after 24 hours of the exposure, in triplicate, read-out: death rate; for pest or weed control at 1 µg/mL: concentration 1.0 μg/ml
Method: Insecticidal Test for Ctenocephalides Felis
0.5 ml of a solution of acetone, the active ingredient, prepared to the prescribed concentration was added dropwise to a glass tube with a flat bottom (internal diameter: 2.6 cm, bottom area: 5.3 cm^2, height: 12 cm), and the solvent was evaporated at room temperature to form a dry film of the agent on the bottom surface. About 10 adults of Ctenocephalides Felis per glass tube were added, and the adults were contact-exposed to the test compound. After 24 hours of the exposure, the conditions of the adults were examined and classified into “alive” and “dead (including a moribund condition)” to determine the death rate (in triplicate).
As the comparative compounds, the following Compounds (A), (B), and (C) disclosed in WO2009/080203, and fipronil were used.

[11] = system: Rhipicephalus sanguineus; experiment: Insecticidal test for Rhipicephalus sanguineus (treated glass petri dish, Table A6); conditions: adults of Rhipicephalus sanguineus, 18 hour exposure, examined after 48 hours, in single
Method: Insecticidal Test for Rhipicephalus sanguineus
0.5 ml of a solution of acetone, the active ingredient, prepared to the prescribed dose was added dropwise into a glass petri dish with a diameter of 10 cm, and the acetone was evaporated at room temperature. About 10 adults of Rhipicephalus sanguineus per dish were added, and the dish was covered by another glass petri dish that was treated with the active ingredient in the same manner described above. After 18 hour exposure to the test substance, the adults were transferred into a glass petri dish that was not treated with the active ingredient. After 48 hours of the exposure, the conditions of the adults were examined and classified into “alive” and “dead (including a moribund condition)” to determine the death rate (in single).
As the comparative compounds, said Compounds (B), (C), and (D), and the following Compound (F) disclosed in WO2009/080203, and fipronil were used.

[12] = system: Ctenocephalides Felis; experiment: Insecticidal test for Ctenocephalides felis, Test Example 3 (dry film in glass tube, 0.96 ml, Table A5); conditions: 1 μg/ml, adults of Ctenocephalides felis, after 24 hours of exposure, in triplicate
Method: Insecticidal Test for Ctenocephalides felis
0.96 ml of a solution of acetone, the active ingredient, prepared to the prescribed concentration was added dropwise to a glass tube with a flat bottom (internal diameter: 3.6 cm, height: 12 cm), and the solvent was evaporated at room temperature to form a dry film of the agent on the bottom surface. About 10 adults of Ctenocephalides felis per glass tube were added, and they were contact-exposed to the test compound. After 24 hours of the exposure, the conditions of the adults were examined and classified into “alive” and “dead (including a moribund condition)” to determine the death rate was determined (in triplicate).
As the comparative compounds, the following Compounds (D) and (E) disclosed in WO2009/080203, and fipronil were used.

Compound | pest or weed control at 1 ppm [1] [%] | pest or weed control at 1 ppm [2] [%] | pest or weed control at 1 ppm [3] [%] | pest or weed control at 1 ppm [4] [%] | pest or weed control at 1 ppm [5] [%] | pest or weed control at 100 ppm [6] [%] | pest or weed control at 100 ppm [7] [%] | pest or weed control at 100 ppm [8] [%] | pest or weed control at 30 ppm [9] [%] | pest or weed control at 0.1 µg/mL ([10]; concentration 0.1 μg/ml) [%] | pest or weed control at 1 µg/mL [10] [%] | death rate ([11]; 0.673 mg/m^2) [%] | death rate ([11]; 2.69 mg/m^2) [%] | death rate ([11]; 10.8 mg/m^2) [%] | death rate [12] [%]
CN(C(=O)c1cccc(F)c1)c1cccc(C(=O)Nc2c(I)cc(C(F)(C(F)(F)F)C(F)(F)F)cc2C(F)(F)F)c1F [7-1732, 2-fluoro-3-(3-fluoro-N-methylbenzamide)-N-(2-iodo-4-(heptafluoropropan-2-yl)-6-(trifluoromethyl)phenyl)benzamide] | ≥ 70 | ≥ 70 | ≥ 70 | ≥ 70 | ≥ 70 | ≥ 70 | ≥ 70 | ≥ 70 | ≥ 70 | 76.7 |  |  |  |  | 
O=C(Nc1cccc(C(=O)Nc2c(I)cc(C(F)(C(F)(F)F)C(F)(F)F)cc2I)c1)c1ccccc1 [compound (B)] |  |  |  |  |  |  |  |  |  |  | 3.2 | 0.0 | 20.0 | 50.0 | 
CN(C(=O)c1ccccc1)c1cccc(C(=O)Nc2c(Br)cc(C(F)(C(F)(F)F)C(F)(F)F)cc2C(F)(F)F)c1 [7-268] | ≥ 70 | ≥ 70 |  |  |  | ≥ 70 | ≥ 70 | ≥ 70 | ≥ 70 |  |  |  |  |  | 
CN(C(=O)c1ccccc1)c1cccc(C(=O)Nc2c(I)cc(C(F)(C(F)(F)F)C(F)(F)F)cc2C(F)(F)F)c1F [7-1730] | ≥ 70 | ≥ 70 | ≥ 70 | ≥ 70 | ≥ 70 | ≥ 70 | ≥ 70 |  | ≥ 70 |  |  |  |  |  | 
Cc1cc(C(F)(C(F)(F)F)C(F)(F)F)cc(C)c1NC(=O)c1cccc(NC(=O)c2cccnc2F)c1 [compound (A), reference compound] |  |  |  |  |  |  |  |  |  |  | 0 |  |  |  | 
CCc1cc(C(F)(C(F)(F)F)C(F)(F)F)cc(C)c1NC(=O)c1cccc(NC(=O)c2ccccc2Cl)c1F [compound (E)] |  |  |  |  |  |  |  |  |  |  |  |  |  |  | 0.0
O=C(Nc1cccc(C(=O)Nc2c(I)cc(C(F)(F)F)cc2C(F)(F)F)c1)c1ccccc1 [compound (C)] |  |  |  |  |  |  |  |  |  |  | 0 | 0.0 | 11.1 | 10.0 | 
O=C(Nc1cccc(C(=O)Nc2c(I)cc(C(F)(C(F)(F)F)C(F)(F)F)cc2I)c1F)c1ccccc1 [6-1260, 3-benzamide-N-(2,6-diiodo-4-(perfluoropropan-2-yl)phenyl)-2-fluorobenzamide] | ≥ 70 | ≥ 70 | ≥ 70 | ≥ 70 | ≥ 70 | ≥ 70 | ≥ 70 |  | ≥ 70 |  |  |  |  |  | 
